From paper PMC7565698, “Catabolic Reductive Dehalogenase Substrate Complex Structures Underpin Rational Repurposing of Substrate Scope” (Microorganisms, 2020)

Assays:
[1] = biological target: T1, NpRdhA (Nitratireductor pacificus, UniProt K2MB66); assay: X-ray crystal structure, soaked crystals ([…] Å); type: binding; conditions: N-terminal His tag, 100 mM soak
T1 construct: gene NA2_14372; full-length, N-terminal His6 tag (NpRdhA^N; crystals) or C-terminal His6 tag (NpRdhA^C; A419M); expressed in Bacillus megaterium; holds cobalamin and two [4Fe-4S] clusters

[2] = biological target: T2, NpRdhA (Nitratireductor pacificus, UniProt K2MB66, A419M); assay: HPLC of dehalogenation products; type: biochemical; conditions: NADPH, spinach ferredoxin, E. coli flavodoxin reductase, 30 °C, anaerobic; C-terminal His tag
T2 construct: gene NA2_14372; full-length, N-terminal His6 tag (NpRdhA^N; crystals) or C-terminal His6 tag (NpRdhA^C; A419M); expressed in Bacillus megaterium; holds cobalamin and two [4Fe-4S] clusters

[3] = biological target: T1, NpRdhA; assay: X-band continuous wave EPR of cob(II)alamin; type: binding; conditions: 20 mM ligand, 100 uM protein, 30 K

T1 sequence (K2MB66 entry or part of it): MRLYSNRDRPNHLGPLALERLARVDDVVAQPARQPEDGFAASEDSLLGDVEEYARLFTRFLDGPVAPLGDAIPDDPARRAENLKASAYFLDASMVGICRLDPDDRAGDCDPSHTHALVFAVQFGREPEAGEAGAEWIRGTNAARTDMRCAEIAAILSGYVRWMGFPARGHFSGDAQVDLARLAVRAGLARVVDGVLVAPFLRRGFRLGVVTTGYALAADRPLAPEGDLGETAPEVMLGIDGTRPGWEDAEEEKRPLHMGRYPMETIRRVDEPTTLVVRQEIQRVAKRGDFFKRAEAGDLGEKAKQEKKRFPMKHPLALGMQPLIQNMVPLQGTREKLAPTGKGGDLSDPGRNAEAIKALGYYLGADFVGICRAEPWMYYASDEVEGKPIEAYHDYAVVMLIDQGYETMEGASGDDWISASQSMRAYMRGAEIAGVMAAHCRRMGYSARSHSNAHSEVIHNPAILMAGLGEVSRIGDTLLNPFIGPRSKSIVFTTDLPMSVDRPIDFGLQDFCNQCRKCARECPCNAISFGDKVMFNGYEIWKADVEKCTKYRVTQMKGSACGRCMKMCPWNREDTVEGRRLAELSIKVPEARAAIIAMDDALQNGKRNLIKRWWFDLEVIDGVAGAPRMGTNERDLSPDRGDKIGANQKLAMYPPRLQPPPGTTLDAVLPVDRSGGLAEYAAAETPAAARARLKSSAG
T2 sequence (K2MB66 entry or part of it A419M): as the sequence (K2MB66 entry or part of it) above, with A419M counted along it

With `O=C(O)c1cc(Br)c(O)c(Br)c1` [35-DB-4-OH, 3,5-dibromo-4-hydroxybenzoic acid] the “X-ray crystal structure, soaked crystals (1.99 Å)” value ([1]; active site above cobalamin, Br at Co beta-axial position, partial photoreduction to 3-bromo-4-hydroxybenzoic acid) was 35-DB-4-OH is located above the cobalamin and the “HPLC of dehalogenation products” value [2] was “revealed the ability to dehalogenate 35-DB-4-OH, 3-B-4-OH, 35-DC-4-OH and 3-C-4-OH”.

For `O=C(O)c1cc(Cl)c(O)c(Cl)c1` [35-DC-4-OH, 3,5-dichloro-4-hydroxybenzoic acid], the “X-band continuous wave EPR of cob(II)alamin” value [3] was “a distinct change in both g and hyperfine coupling values on substrate binding”.

For `O=C(O)c1ccc(O)c(Br)c1` [3-B-4-OH, 3-bromo-4-hydroxybenzoic acid], the “X-ray crystal structure, soaked crystals (1.99 Å)” value ([1]; three conformations, one with Br ligating Co, one at the active site entrance) was “structure of the NpRdhA^N protein in complex with 3-B-4-OH obtained through soaking” and the “HPLC of dehalogenation products” value [2] was “revealed the ability to dehalogenate 35-DB-4-OH, 3-B-4-OH, 35-DC-4-OH and 3-C-4-OH”.
